We go through four compounds from patent publication US6486171B2, “Piperidine compounds” (Les Laboratoires Servier, priority 1999, dated 2002).

Data set [1] deals with marble-burying behaviour of mice. Description: Marble-burying test in mice. The data set is classed as in vivo. The note with it: male NMRI mice, 30 minutes' exploration. From the text:
This test enables evaluation of the capacity of pharmacological agents to inhibit the spontaneous marble-burying behaviour of mice, the inhibition being predictive of antidepressant and/or anti-impulsive action. Male mice of the NMRI strain (Iffa-Credo, 1'Arbresle, France) weighing from 20 to 25 g on the day of the experiment are placed individually in Macrolon boxes (30×18×19 cm) containing 5 cm of sawdust and covered with a perforated plexiglass plate. Twenty four “tiger's eye” glass marbles are evenly distributed on the sawdust at the periphery of the box. At the end of 30 minutes' free exploration, the animals are removed from the box and the number of buried marbles is counted.

Data set [2] has as its target T1, serotonin reuptake sites (Rattus norvegicus, UniProt P31652).
T1 construct: The membranes are prepared from rat frontal cortex; from tissue; host or cells: rat frontal cortex membranes
Description: Affinity for serotonin reuptake sites, [3H]-paroxetine competition. The note with it: rat frontal cortex membranes, read-out: pKi, serotonin reuptake sites (converted). It is filed as binding. As for the experimental part: The affinity was determined by competition experiments using [^3H]-paroxetine (NEN, Les Ulis, France). The membranes are prepared from rat frontal cortex and are incubated in triplicate for 2 hours at 25° C. with 1.0 nM [^3H]-paroxetine and cold ligand in a final volume of 0.4 ml. The incubation buffer contains […] TRIS-HCl (pH 7.4), 120 mM NaCl and 5 mM KCl. The non-specific binding is determined using 10 μM citalopram. At the end of the incubation, the incubation medium is filtered and washed three times with 5 ml of cooled buffer. The radioactivity retained on the filters is determined by liquid scintillation counting. The binding isotherms are analysed by non-linear regression to determine the IC50 values. Those values are converted into a dissociation constant (Ki) using the Cheng-Prusoff equation: […]
wherein L is the concentration of [^3H]-paroxetine and Kd is the dissociation constant of [^3H]-paroxetine from the serotonin reuptake site (0.13 nM). The results are expressed in pKi.

Data set [3] addresses T2, 5-HT1A receptors (Homo sapiens, UniProt P08908).
T2 construct: expressed in transfected cells; host or cells: CHO cells
T2 sequence (P08908 1-422): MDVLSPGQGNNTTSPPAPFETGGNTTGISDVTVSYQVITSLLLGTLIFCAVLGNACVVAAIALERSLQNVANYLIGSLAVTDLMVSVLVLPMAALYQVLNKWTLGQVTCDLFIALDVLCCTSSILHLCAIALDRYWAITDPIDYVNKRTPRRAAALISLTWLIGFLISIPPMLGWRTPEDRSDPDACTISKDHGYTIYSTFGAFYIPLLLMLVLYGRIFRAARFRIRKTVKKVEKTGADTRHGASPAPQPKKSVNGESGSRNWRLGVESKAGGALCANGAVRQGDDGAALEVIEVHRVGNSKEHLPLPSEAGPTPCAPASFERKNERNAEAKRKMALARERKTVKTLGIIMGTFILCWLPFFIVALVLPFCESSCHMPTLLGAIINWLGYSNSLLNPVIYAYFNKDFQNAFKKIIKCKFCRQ
Description: Affinity for 5-HT1A receptors, [3H]-8-OH-DPAT competition. It is filed as binding. The following applies: membranes from CHO cells transfected with 5HT1A receptor, read-out: pKi, 5-HT1A receptor (converted). As for the experimental part:
The affinity was determined by competition experiments using [^3H]-8-OH-DPAT (NEN, Les Ulis, France). The membranes, prepared from CHO cells transfected with 5HT1A receptor, were prepared as described in Neuropharmacol., 1997, 36, 451-459. The membranes were incubated in triplicate for two and a half hours at 25° C. with 0.4 nM [^3H]-8-OH-DPAT and cold ligand in a final volume of 1.0 ml. The incubation buffer contains 50 mM HEPES-NaOH (pH 7.4) and 5 mM MgCl2. The non-specific binding is determined using 10 μM 5-HT. At the end of the incubation, the incubation medium is filtered through filters impregnated with 0.1% polyethyleneimine and washed three times with 5 ml of cooled buffer. The radioactivity retained on the filters is determined by liquid scintillation counting. The binding isotherms are analysed by non-linear regression to determine the IC50 values. Those values are converted into a dissociation constant (Ki) using the Cheng-Prusoff equation: […]
wherein L is the concentration of [^3H]-8-OH-DPAT and Kd is the dissociation constant of [^3H]-8-OH-DPAT from the 5HT1A receptor (0.65 nM). The results are expressed in pKi.

In data set [4] the test system is aggressiveness in isolated mice. Put plainly: Test of aggressiveness in isolated mice. The data set is classed as in vivo. The following applies: male CD mice, treatment 30 minutes before test. The source says:
This test allows the evaluation of the intraspecies anti-aggressive activity of a product in mice that have been kept in isolation for several months. The test uses male CD mice (Charles River) weighing from 22 to 25 g. On their arrival, the animals are isolated in individual opaque black cages (23×14×13 cm) with a grill lid, and are housed for a prolonged period (approximately six months) in the experimentation room. The selection of aggressive pairs of mice that will be used for an extended period in the study commences after the animals have been isolated for one month. Once or twice per week a mouse from another cage (intruder) is placed in the cage of a (resident) mouse and the two animals are observed to see if they attack one another (sniffing, pursuing, nibbling, biting) during that trial. At the end of the trial (maximum duration 10 minutes), each mouse is isolated again in its own cage. If attacks have occurred, the same pair will be tested again in the next trial; if there have been no attacks, each mouse of that pair will be placed in the presence of another mouse in the subsequent trial. Thus, in the course of successive trials carried out at a rate of 1 or 2 per week, definitive pairs of mice that will be used for the experiments are selected. […] The latent period (in seconds) of the first attack and the number and total duration (in seconds) of the attacks are recorded. […]

Data set [5] has as its system serotonin level. Description: Microdialysis experiment in the rat (frontal cortex). It is filed as in vivo. The note with it: 10 mg/kg subcutaneously, cingulate frontal cortex dialysate. The protocol: Rats are anaesthetised with pentobarbital (60 mg/kg i.p.). They are placed in a Kopf stereotactic device and the cannula guide is implanted in the cingulate frontal cortex in accordance with the coordinates described in the Paxinos and Watson atlas (1982) as follows: AP=+2.2; L=±0.6; DV=−0.2. The rats are placed in separate cages and are not used in dialysis until 5 days later. […] The probe is perfused at a flow rate of 1 μl/min. with a solution of 147.2 mM NaCl, 4 mM KCl and 2.3 mM CaCl2 adjusted to pH 7.3 with a phosphate buffer (0.1 M). Two hours after implantation, samples are collected every 20 minutes for 4 hours. Three baseline samples are taken before administration of the products to be tested. The rats are left in their individual cages for the whole of the experiment. When the experiment is finished, the rats are decapitated and the brain is removed and frozen in isopentane. […]
The simultaneous quantification of dopamine, norepinephrine and serotonin is carried out as follows: 20 μl dialysis samples are each diluted with 20 μl of mobile phase (NaH2PO4: 75 mM; EDTA: 20 μM; sodium 1-decanesulphonate: 1 mM; methanol: 17.5%; triethylamine: 0.01%; pH: 5.7) and 33 μl samples are analysed by HPLC using a reverse phase column thermostatically maintained at 45° C. and quantified by means of a coulometric detector. […]

Structures can show the parent of a compound that is named as a salt.

T1 sequence (P31652 whole entry): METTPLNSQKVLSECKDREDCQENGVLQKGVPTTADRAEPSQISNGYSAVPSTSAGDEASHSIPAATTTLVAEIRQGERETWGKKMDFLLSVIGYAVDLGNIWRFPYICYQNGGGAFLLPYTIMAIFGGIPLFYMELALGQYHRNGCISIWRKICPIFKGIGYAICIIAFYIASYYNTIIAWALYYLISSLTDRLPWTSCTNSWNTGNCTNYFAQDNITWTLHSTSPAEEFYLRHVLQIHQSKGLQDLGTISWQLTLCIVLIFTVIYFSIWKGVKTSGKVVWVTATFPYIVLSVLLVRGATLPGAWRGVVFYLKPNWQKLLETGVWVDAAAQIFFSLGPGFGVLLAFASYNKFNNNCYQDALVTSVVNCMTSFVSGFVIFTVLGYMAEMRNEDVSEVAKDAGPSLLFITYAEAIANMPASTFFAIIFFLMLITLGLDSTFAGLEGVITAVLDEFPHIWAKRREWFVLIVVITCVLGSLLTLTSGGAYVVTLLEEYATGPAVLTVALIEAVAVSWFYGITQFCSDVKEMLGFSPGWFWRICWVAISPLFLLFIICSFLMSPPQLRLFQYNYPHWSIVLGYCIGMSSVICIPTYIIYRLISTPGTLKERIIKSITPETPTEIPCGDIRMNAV

The term melting point denotes the temperature, or range, at which the solid turns liquid. For the compound `c1ccc2cc(CCN3CCN(c4nccc5ccoc45)CC3)ccc2c1` (as salt: fumarate) [Example 30, 7-{4-[2-(2-Naphthyl)ethyl]-1-piperazinyl}furo[2,3-c]pyridine], the melting point lay within 175 to 181 °C.

In the case of `c1ccc2c(CCN3CCC(c4nccc5occc45)CC3)cccc2c1` [Example 7, 4-{1-[2-(1-Naphthyl)ethyl]-4-piperidinyl}furo[3,2-c]pyridine], the “Marble-burying in mice, ID50” value in data set [1] was 1.64 mg/kg s.c. In addition, the Ki in data set [2] and in data set [3] was under 31.6 nM in each case. In addition, the “Inhibitory Dose 50, aggressiveness in isolated mice” value in data set [4] was “less than 1.5 mg/kg i.p”. Moreover, in data set [5], the “increase of the level of serotonin (maximum % of the effect compared with the baseline level defined as 0%)” value is 140.5±15.2%.

As for `CNCCC(Oc1ccc(C(F)(F)F)cc1)c1ccccc1` (centres unmarked) [fluoxetine, reference compound], the “Marble-burying in mice, ID50” value in data set [1] is 8.03 mg/kg s.c.

On to `c1cc2occc2c(N2CCN(CCc3ccc4c(c3)CCO4)CC2)n1` [Example 11, 4-{4-[2-(2,3-Dihydrobenzofuran-5-yl)ethyl]-1-piperazinyl}furo[3,2-c]pyridine], for which the “Marble-burying in mice, ID50” value in data set [1] came to 0.94 mg/kg s.c.
